Measurements taken from PMC6008489 (Bioorganic & Medicinal Chemistry, 2018).

Assays:
MET = biological target: T1, MET (Homo sapiens, UniProt P08581); test: 26-kinase panel mobility shift assay, single concentration; assay type: biochemical; details: read-out: % Inhibition MET
T1 construct: purchased Perkin Elmer (ProfilerPro assay kit 1)
Method: In order to test the biochemical activity of our fragment library, a panel of 26 structurally diverse protein kinases was used.
Mobility Shift Assay Protocol
(§1) Screening of 26 kinases using a mobility shift assay
(§2) A mobility shift assay to determine kinase inhibition was carried out using a
(§3) modified version of the ProfilerPro assay kit 1 (Perkin Elmer, Coventry, UK)
(§4) including MPS1 and Aurora B. Each kit contained an enzyme plate, a substrate
(§5) plate, reconstitution buffer, 1 M DTT, protease inhibitor cocktail and termination
(§6) buffer. Test compounds were added as a solution in DMSO.
final concentration. […] The
(§7) peptide phosphorylation assay was carried out as per the manufacturer’s
(§8) instructions. The electrophoretic separation and analysis of the phosphorylated
(§9) and non-phosphorylated peptides was carried out on a 4-sipper chip using a
(§10) LabChip EZReader II (Perkin Elmer). Results were expressed as % inhibition of
(§11) peptide phosphorylation relative to control wells for 0 % (no test compound) and
(§12) 100 % (no ATP) inhibition. The percentage inhibition was calculated using the
(§13) % Inhibition = [1 - (% Conversion Sample / % Conversion 0% Inhibition Control)] x 100

AKT1 = biological target: T2, AKT1 (Homo sapiens, UniProt P31749); test: as above; assay type: biochemical; details: read-out: % Inhibition AKT1
T2 construct: purchased Perkin Elmer ProfilerPro assay kit 1
Method: Mobility Shift Assay Protocol
as §1, §2, §3, §4, §5, §6, §7, §8, §9, §10, §11, §12, §13

AurA = biological target: T3, AurA (Homo sapiens, UniProt O14965); test: as above; assay type: biochemical; details: read-out: % Inhibition AurA
T3 construct: purchased Perkin Elmer (ProfilerPro assay kit 1)
T3 sequence (O14965 1-403): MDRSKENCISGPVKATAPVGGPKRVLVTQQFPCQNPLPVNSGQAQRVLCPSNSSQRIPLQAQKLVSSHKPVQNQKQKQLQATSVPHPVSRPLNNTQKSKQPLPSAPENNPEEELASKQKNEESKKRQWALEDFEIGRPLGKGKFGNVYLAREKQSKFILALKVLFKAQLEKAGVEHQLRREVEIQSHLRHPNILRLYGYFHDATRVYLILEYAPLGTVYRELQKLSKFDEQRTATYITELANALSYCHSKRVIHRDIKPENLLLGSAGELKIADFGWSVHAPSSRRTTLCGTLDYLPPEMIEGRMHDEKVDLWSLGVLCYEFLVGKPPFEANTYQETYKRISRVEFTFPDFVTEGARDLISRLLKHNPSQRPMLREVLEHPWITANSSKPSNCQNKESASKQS
Method: Mobility Shift Assay Protocol
as §1, §2, §3, §4, §5, §6, §7, §8, §9, §10, §11, §12, §13

[1] = Solubility as noted for the kinase panel screen; assay type: physicochemical; details: reason for screening at 30 µM instead of 100 µM

T1 sequence (P08581 25-1390): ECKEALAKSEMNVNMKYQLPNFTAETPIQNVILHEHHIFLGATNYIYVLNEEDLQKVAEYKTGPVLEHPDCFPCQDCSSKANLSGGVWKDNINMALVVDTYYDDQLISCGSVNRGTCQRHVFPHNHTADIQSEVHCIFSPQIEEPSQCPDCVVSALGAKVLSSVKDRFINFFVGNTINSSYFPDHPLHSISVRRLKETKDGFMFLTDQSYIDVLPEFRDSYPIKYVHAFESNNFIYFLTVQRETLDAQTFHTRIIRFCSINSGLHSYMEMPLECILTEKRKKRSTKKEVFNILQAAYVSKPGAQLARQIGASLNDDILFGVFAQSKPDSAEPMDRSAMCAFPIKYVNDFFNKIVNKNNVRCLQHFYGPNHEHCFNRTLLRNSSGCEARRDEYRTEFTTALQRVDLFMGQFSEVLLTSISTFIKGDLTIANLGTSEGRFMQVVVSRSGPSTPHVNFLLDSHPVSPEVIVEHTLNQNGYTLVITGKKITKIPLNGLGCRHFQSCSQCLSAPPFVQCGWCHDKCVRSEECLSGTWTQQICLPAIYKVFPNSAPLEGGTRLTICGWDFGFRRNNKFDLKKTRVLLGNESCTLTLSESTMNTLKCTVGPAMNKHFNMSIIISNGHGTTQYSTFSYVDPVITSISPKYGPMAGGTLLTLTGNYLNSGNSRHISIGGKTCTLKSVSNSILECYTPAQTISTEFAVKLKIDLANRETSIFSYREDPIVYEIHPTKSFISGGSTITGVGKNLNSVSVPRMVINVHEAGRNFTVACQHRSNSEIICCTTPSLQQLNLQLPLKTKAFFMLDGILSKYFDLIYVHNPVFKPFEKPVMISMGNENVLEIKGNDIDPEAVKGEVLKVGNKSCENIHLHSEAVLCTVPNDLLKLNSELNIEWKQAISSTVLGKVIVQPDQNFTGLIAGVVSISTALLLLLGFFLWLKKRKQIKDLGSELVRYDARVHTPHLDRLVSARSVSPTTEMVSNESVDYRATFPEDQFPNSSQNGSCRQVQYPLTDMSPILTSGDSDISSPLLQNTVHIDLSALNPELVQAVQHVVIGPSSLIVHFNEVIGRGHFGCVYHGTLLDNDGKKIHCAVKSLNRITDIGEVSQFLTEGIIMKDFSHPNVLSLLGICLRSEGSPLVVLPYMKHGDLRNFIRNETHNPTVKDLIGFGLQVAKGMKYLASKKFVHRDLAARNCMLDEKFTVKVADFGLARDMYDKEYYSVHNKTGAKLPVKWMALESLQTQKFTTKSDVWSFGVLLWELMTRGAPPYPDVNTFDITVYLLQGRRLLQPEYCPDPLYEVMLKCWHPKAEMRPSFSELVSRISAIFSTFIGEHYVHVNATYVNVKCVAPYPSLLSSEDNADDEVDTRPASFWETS
T2 sequence (P31749 whole entry): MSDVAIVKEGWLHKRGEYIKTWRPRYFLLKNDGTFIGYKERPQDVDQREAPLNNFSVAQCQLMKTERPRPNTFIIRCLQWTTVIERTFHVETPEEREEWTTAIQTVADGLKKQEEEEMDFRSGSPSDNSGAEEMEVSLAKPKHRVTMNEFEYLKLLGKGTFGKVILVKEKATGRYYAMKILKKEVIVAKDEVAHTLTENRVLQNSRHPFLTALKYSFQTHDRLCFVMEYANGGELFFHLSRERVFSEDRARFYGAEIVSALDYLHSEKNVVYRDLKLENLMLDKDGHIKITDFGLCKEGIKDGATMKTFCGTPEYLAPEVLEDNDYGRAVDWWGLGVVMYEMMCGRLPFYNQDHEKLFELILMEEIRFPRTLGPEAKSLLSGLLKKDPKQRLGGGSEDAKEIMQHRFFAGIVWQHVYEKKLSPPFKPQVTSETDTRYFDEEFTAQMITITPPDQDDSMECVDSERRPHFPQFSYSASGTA

| SMILES | inhibition at 100 µM (MET) [%] | inhibition at 100 µM (AKT1) [%] | inhibition at 100 µM (AurA) [%] | melting point [°C] | inhibition at 30 µM (MET) [%] | solubility (in words) [1] | inhibition at 30 µM (AKT1) [%] | inhibition at 30 µM (AurA) [%] |
| --- | --- | --- | --- | --- | --- | --- | --- | --- |
| Nc1ccc[nH]c1=O [Compound 1, 3-aminopyridin-2-one] | 33 | 42 | 58 | – | – | – | – | – |
| Cn1cc(-c2c[nH]c(=O)c(N)c2)cn1 [Compound 2, 3-Amino-5-(1-methyl-1H-pyrazol-4-yl)pyridin-2(1H)-one] | 81 | 97 | 100 | 264 | – | – | – | – |
| COc1ncc(-c2ccncc2)cc1N [Compound 5, 6-Methoxy-3,4′-bipyridin-5-amine] | 18 | 22 | 46 | – | – | – | – | – |
| Nc1cc(-c2ccnc3ccccc23)c[nH]c1=O [Compound 6] | 19 | 15 | 62 | – | – | – | – | – |
| CNc1nccc(-c2c[nH]c(=O)c(N)c2)n1 [Compound 7] | 76 | 89 | 98 | – | – | – | – | – |
| Nc1cc(-c2ccnc(NC3CC3)n2)c[nH]c1=O [Compound 8] | 26 | 18 | 87 | – | – | – | – | – |
| Cc1nc(O)c(N)cc1-c1ccncc1 [Compound 15, 3-Amino-6-methyl-5-(pyridin-4-yl)pyridin-2-one] | 14 | 10 | 49 | – | – | – | – | – |
| O=C(Nc1cc(-c2ccncc2)c[nH]c1=O)c1ccccc1 [Compound 16, N-(2-Oxo-5-(pyridin-4-yl)-1,2-dihydropyridin-3-yl)benzamide] | – | – | – | – | 9 | poor solubility | 12 | 59 |
| CN1CCN(c2ccc(C(=O)Nc3cc(-c4ccncc4)c[nH]c3=O)cc2)CC1 [Compound 22] | – | – | – | – | 24 | poor solubility | 13 | 92 |
| O=C(Nc1cc(-c2ccnc(NC3CC3)n2)c[nH]c1=O)c1ccccc1 [Compound 24] | – | – | – | – | 65 | poor solubility | 73 | 99 |
